From the supplement of paper PMC10307832

Compound: COC1=C(C=C(C=C1)C2=CC3=NC=CN3C(=N2)NC4=C(C=CC=N4)C(=O)N)OC [BAY61-3606] + CC(C)C[C@H](NC(=O)[C@H](Cc1ccccc1)NC(=O)c1cnccn1)B(O)O [Bortezomib] (partner 0.002 µM)
Experiment: relative viability (nuclei count vs DMSO), 5 days (fraction); higher = more cells survive
Conditions: first compound 0.02 µM
Procedure, shortened: (§1)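 Medians of duplicate plates are given as relative viability. That measure is the nuclei count in treated wells divided by the count in vehicle wells. Counts were taken on 4× images of lung cancer cell lines in 1536-well plates, 5 days after pin-tool dosing the day after seeding with one drug alone or a fixed anchor-drug dose plus five library-drug doses (not always all listed) in √10 steps.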

Row | Cell Line | relative viability
1 | NCI-H1437 | 0.544
2 | NCI-H460 | 1.12
3 | NCI-H1792 | 0.967
4 | NCI-H2085 | 1.11
5 | HCC-15 | 1.04
6 | EKVX | 1.12
7 | LCLC-103H | 1.28
8 | NCI-H1650 | 0.24
9 | NCI-H1993 | 1.08
10 | NCI-H23 | 0.97
11 | PC-14 | 0.829
12 | HCC-366 | 1.04

Same assay, conditions: first compound 0.06325 µM

Row | Cell Line | relative viability
13 | NCI-H1437 | 0.502
14 | NCI-H460 | 1.12
15 | NCI-H1792 | 0.987
16 | NCI-H2085 | 1.07
17 | HCC-15 | 1.06
18 | EKVX | 1.09
19 | LCLC-103H | 1.01
20 | NCI-H1650 | 0.201
21 | NCI-H1993 | 1.02
22 | NCI-H23 | 1.36
23 | PC-14 | 0.883
24 | HCC-366 | 1.16

Same assay, conditions: first compound 0.2 µM

Row | Cell Line | relative viability
25 | NCI-H1437 | 0.433
26 | NCI-H460 | 1.05
27 | NCI-H1792 | 0.879
28 | NCI-H2085 | 1.06
29 | HCC-15 | 0.967
30 | EKVX | 1.03
31 | LCLC-103H | 1.03
32 | NCI-H1650 | 0.183
33 | NCI-H1993 | 0.976
34 | NCI-H23 | 0.871
35 | PC-14 | 0.801
36 | HCC-366 | 1.1

Same assay, conditions: first compound 0.6325 µM

Row | Cell Line | relative viability
37 | NCI-H1437 | 0.536
38 | NCI-H460 | 0.92
39 | NCI-H1792 | 0.943
40 | NCI-H2085 | 1.13
41 | HCC-15 | 0.937
42 | EKVX | 1.16
43 | LCLC-103H | 1.07
44 | NCI-H1650 | 0.356
45 | NCI-H1993 | 1.12
46 | NCI-H23 | 1.13
47 | PC-14 | 0.949
48 | HCC-366 | 0.998

Same assay, conditions: first compound 2 µM

Row | Cell Line | relative viability
49 | NCI-H1437 | 0.509
50 | NCI-H460 | 0.548
51 | NCI-H1792 | 0.976
52 | NCI-H2085 | 0.953
53 | HCC-15 | 1.01
54 | EKVX | 1.06
55 | LCLC-103H | 1.05
56 | NCI-H1650 | 0.201
57 | NCI-H1993 | 0.848
58 | NCI-H23 | 0.77
59 | PC-14 | 0.728
60 | HCC-366 | 0.964

Compound: COC1=C(C=C(C=C1)C2=CC3=NC=CN3C(=N2)NC4=C(C=CC=N4)C(=O)N)OC [BAY61-3606] + Nc1ncn([C@H]2C[C@H](O)[C@@H](CO)O2)c(=O)n1 [Decitabine] (partner 2 µM)
Experiment: as above
Conditions: first compound 0.02 µM
Procedure, shortened: as §1

Row | Cell Line | relative viability
61 | NCI-H1437 | 0.579
62 | NCI-H460 | 0.508
63 | NCI-H1792 | 0.605
64 | NCI-H2085 | 0.531
65 | HCC-15 | 0.575
66 | EKVX | 0.362
67 | LCLC-103H | 0.773
68 | NCI-H1650 | 0.449
69 | NCI-H1993 | 0.632
70 | NCI-H23 | 0.393
71 | HCC-366 | 0.379

Same assay, conditions: first compound 0.06325 µM

Row | Cell Line | relative viability
72 | NCI-H1437 | 0.602
73 | NCI-H460 | 0.572
74 | NCI-H1792 | 0.572
75 | NCI-H2085 | 0.528
76 | HCC-15 | 0.569
77 | EKVX | 0.344
78 | LCLC-103H | 0.707
79 | NCI-H1650 | 0.444
80 | NCI-H1993 | 0.622
81 | NCI-H23 | 0.329
82 | PC-14 | 0.244
83 | HCC-366 | 0.433

Same assay, conditions: first compound 0.2 µM

Row | Cell Line | relative viability
84 | NCI-H1437 | 0.564
85 | NCI-H460 | 0.43
86 | NCI-H1792 | 0.547
87 | NCI-H2085 | 0.555
88 | HCC-15 | 0.583
89 | EKVX | 0.318
90 | LCLC-103H | 0.75
91 | NCI-H1650 | 0.432
92 | NCI-H1993 | 0.542
93 | NCI-H23 | 0.363
94 | PC-14 | 0.246
95 | HCC-366 | 0.396

Same assay, conditions: first compound 0.6325 µM

Row | Cell Line | relative viability
96 | NCI-H1437 | 0.563
97 | NCI-H460 | 0.448
98 | NCI-H1792 | 0.617
99 | NCI-H2085 | 0.531
100 | HCC-15 | 0.65
101 | EKVX | 0.349
102 | LCLC-103H | 0.748
103 | NCI-H1650 | 0.424
104 | NCI-H1993 | 0.536
105 | NCI-H23 | 0.346
106 | PC-14 | 0.203
107 | HCC-366 | 0.354

Same assay, conditions: first compound 2 µM

Row | Cell Line | relative viability
108 | NCI-H1437 | 0.582
109 | NCI-H460 | 0.382
110 | NCI-H1792 | 0.493
111 | NCI-H2085 | 0.53
112 | HCC-15 | 0.6
113 | EKVX | 0.328
114 | LCLC-103H | 0.773
115 | NCI-H1650 | 0.387
116 | NCI-H1993 | 0.601
117 | NCI-H23 | 0.383
118 | PC-14 | 0.226
119 | HCC-366 | 0.296

Compound: COc1cccc2c1C(=O)c1c(O)c3c(c(O)c1C2=O)C[C@@](O)(C(=O)CO)C[C@@H]3O[C@H]1C[C@H](N)[C@H](O)[C@H](C)O1 [Doxorubicin] + C[C@@H](Oc1cc(-c2cnn(C3CCNCC3)c2)cnc1N)c1c(Cl)ccc(F)c1Cl [Crizotinib] (partner 1 µM)
Experiment: as above
Conditions: first compound 0.001 µM
Procedure, shortened: as §1

Row | Cell Line | relative viability
120 | NCI-H1437 | 0.866
121 | NCI-H460 | 0.887
122 | NCI-H1792 | 0.975
123 | NCI-H2085 | 0.924
124 | HCC-15 | 0.733
125 | EKVX | 0.865
126 | LCLC-103H | 1.07
127 | NCI-H1650 | 0.925
128 | NCI-H1993 | 1.08
129 | PC-14 | 0.893

Same assay, conditions: first compound 0.003162 µM

Row | Cell Line | relative viability
130 | NCI-H1437 | 0.924
131 | NCI-H460 | 0.882
132 | NCI-H1792 | 0.974
133 | NCI-H2085 | 0.97
134 | HCC-15 | 0.817
135 | EKVX | 1.02
136 | LCLC-103H | 1.06
137 | NCI-H1650 | 0.903
138 | NCI-H1993 | 0.812
139 | NCI-H23 | 0.479
140 | PC-14 | 0.985
141 | HCC-366 | 0.697

Same assay, conditions: first compound 0.01 µM

Row | Cell Line | relative viability
142 | NCI-H1437 | 0.962
143 | NCI-H460 | 0.273
144 | NCI-H1792 | 1.01
145 | NCI-H2085 | 0.943
146 | HCC-15 | 0.767
147 | EKVX | 0.792
148 | LCLC-103H | 1.03
149 | NCI-H1650 | 0.283
150 | NCI-H1993 | 0.839
151 | NCI-H23 | 0.507
152 | PC-14 | 0.962
153 | HCC-366 | 0.509

Same assay, conditions: first compound 0.03162 µM

Row | Cell Line | relative viability
154 | NCI-H1437 | 0.517
155 | NCI-H460 | 0.0178
156 | NCI-H1792 | 0.924
157 | NCI-H2085 | 0.648
158 | HCC-15 | 0.551
159 | EKVX | 1.02
160 | LCLC-103H | 1.06
161 | NCI-H1650 | 0.181
162 | NCI-H1993 | 0.721
163 | NCI-H23 | 0.298
164 | PC-14 | 0.892
165 | HCC-366 | 0.236

Same assay, conditions: first compound 0.1 µM

Row | Cell Line | relative viability
166 | NCI-H1437 | 0.262
167 | NCI-H460 | 0.006
168 | NCI-H1792 | 0.943
169 | NCI-H2085 | 0.63
170 | HCC-15 | 0.534
171 | EKVX | 0.948
172 | LCLC-103H | 1.19
173 | NCI-H1650 | 0.13
174 | NCI-H1993 | 0.822
175 | NCI-H23 | 0.449
176 | PC-14 | 0.944
177 | HCC-366 | 0.333

Compound: COC1=C(C=C(C=C1)C2=CC3=NC=CN3C(=N2)NC4=C(C=CC=N4)C(=O)N)OC [BAY61-3606] + CC(=O)Nc1cccc(-n2c(=O)n(C3CC3)c(=O)c3c(Nc4ccc(I)cc4F)n(C)c(=O)c(C)c32)c1 [Trametinib] (partner 0.02 µM)
Experiment: as above
Conditions: first compound 0.02 µM
Procedure, shortened: as §1

Row | Cell Line | relative viability
178 | NCI-H1437 | 0.537
179 | NCI-H460 | 0.153
180 | NCI-H1792 | 0.574
181 | NCI-H2085 | 0.666
182 | HCC-15 | 0.425
183 | EKVX | 0.497
184 | LCLC-103H | 0.708
185 | NCI-H1650 | 0.661
186 | NCI-H1993 | 0.498
187 | NCI-H23 | 0.437
188 | PC-14 | 0.732
189 | HCC-366 | 0.345

Same assay, conditions: first compound 0.06325 µM

Row | Cell Line | relative viability
190 | NCI-H1437 | 0.456
191 | NCI-H460 | 0.173
192 | NCI-H1792 | 0.361
193 | NCI-H2085 | 0.45
194 | HCC-15 | 0.375
195 | EKVX | 0.308
196 | LCLC-103H | 0.715
197 | NCI-H1650 | 0.514
198 | NCI-H1993 | 0.507
199 | NCI-H23 | 0.347
200 | PC-14 | 0.887
201 | HCC-366 | 0.319

Same assay, conditions: first compound 0.2 µM

Row | Cell Line | relative viability
202 | NCI-H1437 | 0.523
203 | NCI-H460 | 0.134
204 | NCI-H1792 | 0.353
205 | NCI-H2085 | 0.511
206 | HCC-15 | 0.385
207 | EKVX | 0.303
208 | LCLC-103H | 0.666
209 | NCI-H1650 | 0.595
210 | NCI-H1993 | 0.544
211 | NCI-H23 | 0.348
212 | PC-14 | 0.732
213 | HCC-366 | 0.327

Same assay, conditions: first compound 0.6325 µM

Row | Cell Line | relative viability
214 | NCI-H1437 | 0.602
215 | NCI-H460 | 0.117
216 | NCI-H1792 | 0.412
217 | NCI-H2085 | 0.59
218 | HCC-15 | 0.382
219 | EKVX | 0.361
220 | LCLC-103H | 0.654
221 | NCI-H1650 | 0.569
222 | NCI-H1993 | 0.538
223 | NCI-H23 | 0.393
224 | PC-14 | 1.01
225 | HCC-366 | 0.268

Same assay, conditions: first compound 2 µM

Row | Cell Line | relative viability
226 | NCI-H1437 | 0.462
227 | NCI-H460 | 0.104
228 | NCI-H1792 | 0.396
229 | NCI-H2085 | 0.42
230 | HCC-15 | 0.423
231 | EKVX | 0.365
232 | LCLC-103H | 0.65
233 | NCI-H1650 | 0.29
234 | NCI-H1993 | 0.518
235 | NCI-H23 | 0.372
236 | PC-14 | 0.607
237 | HCC-366 | 0.21
